Experiments:
[1] = test system: excised leaves of transgenic tobacco plant 25/2 progeny (CYP71A10-transformed); assay: In vivo herbicide metabolism assay, excised leaves of CYP71A10-transformed tobacco; parameters: species or system Nicotiana tabacum cv SR1; conditions: after 14 hours; 1.2 nmol herbicide; standard error in parentheses; four 25/2 plants
Description: (§1) Seeds from primary transgenic tobacco plants transformed with CYP71A10 and control plants transformed with the pBI121 vector were grown in Petri dishes containing MS salts and 100 μg/ml kanamycin. At five weeks post-seeding, kanamycin-resistant plantlets were transplanted into pots containing soil and grown an additional two weeks. Single leaves of approximately 10 cm^2 in size were excised and their petioles inserted into 100 μl of H2 O containing radiolabeled herbicide. The leaves were placed in a growth chamber maintaining a temperature of 27° C. and incubated until the entire volume of the herbicide solution was drawn up by the transpirational stream of the leaves (about 3 hrs). The leaves were subsequently transferred into an Eppendorf tube containing distilled water and further incubated for a total of 14 hours.
(§2) [^14 C]-labeled herbicide was extracted from the leaves by grinding for 5 minutes in 250 μl methanol with a plastic pellet pestle driven by an electric drill. After centrifugation for 3 minutes at 14,000 g, 75μl of the supernatant was spotted on a Whatman K6F silica plate and developed in a solvent system containing chloroforn/ethanol/acetic acid 135:10:15 (v/v/v). The separated herbicide derivatives were visualized using an imaging scanner. Substrate conversion was quantified based on the amount of herbicide absorbed, and the ratios of the parent compound and the produced metabolites determined from the TLC profiles.

[2] = test system: excised leaves of control tobacco plants transformed with pBI121; assay: In vivo herbicide metabolism assay, excised leaves of control tobacco; parameters: species or system Nicotiana tabacum cv SR1; conditions: after 14 hours; 1.2 nmol herbicide; standard error in parentheses; three pBI121 control plants
Description: as §1, §2

[3] = test system: CYP71A10-transformed tobacco; assay: Herbicide tolerance, seeds germinated on herbicide medium, CYP71A10-transformed tobacco; assay type: in vivo, Nicotiana tabacum cv SR1; conditions: 1.0 μM chlortoluron in medium
Description: (§3) T1 generation seeds from CYP71A10-transformed tobacco and pBI121-transformed control plants were placed onto Petri dishes containing MS salts and linuron (using its commercial formulation LOROX 50 DF) at active ingredient concentrations ranging from 0.25 to 3.0 μM. Chlortoluron was added at 0, 1.0, 5.0 and 10.0 μM concentrations using a 99.5% pure analytical standard. The Petri dishes were incubated in a growth chamber maintaining a constant temperature of 27° C. and a 16/8 hour light/dark cycle. The phytotoxic effects of the treatments were determined visually by comparison to control plants and plants grown in the absence of the herbicide. All treatments were repeated at least twice.

[4] = test system: wild-type SR1 plants and pBI121-transformed control tobacco plants; assay: Herbicide tolerance, seeds germinated on herbicide medium, control tobacco; assay type: in vivo, Nicotiana tabacum cv SR1; conditions: 1.0 μM chlortoluron in medium
Description: as §3

Compound: Cc1ccc(NC(=O)N(C)C)cc1Cl [Chlortoluron, chlortoluron]
- % of herbicide metabolized, CYP71A10-transformed [1]: 85 (8.1) %
- % of herbicide metabolized, Control [2]: 39 (7.5) %
- growth of the 25/2 plants [3]: modestly inhibited
- growth of the control plants [4]: completely arrested

— patent US6121512A, “Cytochrome P-450 constructs and method of producing herbicide-resistant transgenic plants” (North Carolina State University, priority 1997, dated 2000)
